Series [1] is described as follows: In-vivo pharmacokinetics in mice, oral administration. On the set-up: species or system male CD1 mice. Particulars: for AUC(0-inf) / Cmax / half-life: male, CD1, mouse, oral 10 mg/kg, plasma; for F: oral 10 mg/kg vs intravenous 1 mg/Kg. Here is the method:
In this experimental example, the in-vivo pharmacokinetic evaluation was made for mice by intravenous injection and oral administration.
Experimental methods and conditions: male CD1 mice, 6 to 8 weeks old; all animals had free access to food and water; 5 min, 15 min, 30 min, 1 hr, 2 hr, 4 hr, 8 hr and 24 hr after the mice were subjected to a single intravenous injection of 1 mg/Kg of a compound to be tested (solvent 5% DMSO/15% Solutol/80% Saline) (saline in the present application all means a saline solution), or 15 min, 30 min, 1 hr, 2 hr, 4 hr, 6 hr, 8 hr and 24 hr after the mice were subjected to oral intragastric administration of 10 mg/kg (solvent 5% DMSO/10% Solutol/85% Saline), blood was collected from orbits, not less than 50 μL of each sample was collected, and heparin sodium was used for anticoagulation; the collected samples were placed on ice, and the plasma was centrifugally separated within 1 hour for testing. The drug concentration in the plasma was detected by liquid chromatography tandem mass spectrometry (LC/MS/MS), and the pharmacokinetic parameters were calculated by Phoenix WinNonlin software. Embodiment 82 in CN110612294 A was taken as a control sample 1.

In series [2] the test system is VCaP cells. Briefly: Inhibitory effect on VCaP cell proliferation (Cell Titer Glo). In kind it is cell-based. Particulars: Homo sapiens, 144 h; for pIC50: VCaP cells, 5% FBS and 0.1 nM R1881, 6 days; for Emax: maximum degree of VCaP cell proliferation inhibition, 6 days. The protocol:
A tumor cell line Vcap (ATCC Cat. No. CRL-2876) was respectively cultured with DMEM (Gibco Cat. No. 11965-092) medium containing 10% FBS (Gibco Cat. No. 10099-141C). During testing, Vcap cells were replaced with a DMEM culture fluid containing 5% FBS and 0.1 nM R1881 (Sigma Cat. No. R0908). The assay method was as follows:
Vcap cells were seeded to a 384-well plate (Perkin Elmer Cat. No. 6007460) at a cell density of 1200 cells/well and a volume of 20 μL/well; after the cells were incubated overnight in a carbon dioxide incubator (Thermo), the prepared compound solutions with different concentrations were added at a volume of 5 μL/well; meanwhile, a corresponding solvent was provided as a control; after the cells were continuously incubated in the incubator for 6 days, the cell plate and the contents thereof were equilibrated to room temperature; 25 μL of a Cell Titer Glor (Promega Cat. No. G7573) reagent was added to each well; after vibration and uniform mixing, incubation in the dark was performed for 10-30 minutes, and a signal value was detected with Envision microplate reader (PerkinElmer).
A percentage inhibition rate of compound-treated wells was calculated through solvent control wells on the plate, GraphPad prism was used to fit the percentage inhibition rate data corresponding to different concentrations, and IC50 value was calculated by a 4-parameter nonlinear logistic formula.
Emax: a maximum degree of VCaP cell proliferation inhibition. IC50: a compound concentration required to achieve half the maximum degree of VCaP cell proliferation inhibition.
Background: In ATP-based viability assays light output follows the ATP content of the culture.

Series [3] in a line: In-vivo pharmacokinetics in dogs, oral administration. Set-up: species or system male Beijing Marshall beagles. As to conditions: for AUC(0-inf) / Cmax / half-life: male, beagle, dog, oral 10 mg/kg, plasma; for F: oral 10 mg/kg vs intravenous 1 mg/Kg. The protocol: In this experimental example, the in-vivo pharmacokinetic evaluation was made for dogs by intravenous injection and oral administration.
Experimental methods and conditions: male Beijing Marshall beagles, 12 to 18 months old; the beagles were subjected to administration half an hour after feeding; 5 min, 15 min, 30 min, 1 hr, 2 hr, 4 hr, 8 hr, 24 hr, 48 hr and 72 hr after the beagles were subjected to a single intravenous injection of 1 mg/Kg of a compound to be tested (solvent 5% DMSO/10% Solutol/85% Saline), or 15 min, 30 min, 1 hr, 2 hr, 4 hr, 6 hr, 8 hr, 24 hr, 48 hr and 72 hr after the beagles were subjected to oral intragastric administration of 10 mg/kg (solvent 5% DMSO/10% Solutol/85% Saline), blood was collected from orbits, not less than 50 μL of each sample was collected, and heparin sodium was used for anticoagulation; the collected samples were placed on ice, and the plasma was centrifugally separated within 1 hour for testing. The drug concentration in the plasma was detected by liquid chromatography tandem mass spectrometry (LC/MS/MS), and the pharmacokinetic parameters were calculated by Phoenix WinNonlin software. Embodiment 82 in CN110612294 A was taken as a control sample 1.

pIC50: −log10 of the molar value.

Consider `CC1(C)[C@H](NC(=O)c2ccc(N3CCC(CN4CCN(c5ccc6c(=O)n(C7CCC(=O)NC7=O)nc(F)c6c5)CC4)CC3)cc2)C(C)(C)[C@H]1Oc1ccc(C#N)c(Cl)c1` (some centres unmarked) [Compound 29], for which, in series [1], the AUC(0-inf) (commonly the area under the concentration-time curve extrapolated to infinity) was found to be 13400 ng·h/mL, the Cmax (usually the maximum level reached in the sampled fluid or tissue) worked out at 677 ng/mL, the half-life (usually how long it takes for the measured level to halve) was 7.91 h and the F was 24.1%. Also, in series [2], the pIC50 – broadly, the negative decadic logarithm of the IC50, by convention in mol/L – was 7.25 and the Emax came out at 66%.

Consider `CC1(C)[C@H](NC(=O)c2ccc(N3CCC(CN4CCN(c5ccc6c(=O)n([C@H]7CCC(=O)NC7=O)ncc6c5)CC4)CC3)cc2)C(C)(C)[C@H]1Oc1ccc(C#N)c(Cl)c1` [Compound 28A], for which, in series [2], the pIC50 is 8.01 and the Emax was 74%. In series [3], this compound had an AUC(0-inf) of 15400 ng·h/mL, a maximum concentration (Cmax) of 868 ng/mL, a half-life of 34.3 h and an F of 33.9%.

In series [1], `CC1(C)[C@H](NC(=O)c2ccc(N3CCC(CN4CCN(c5ccc6c(=O)n(C7CCC(=O)NC7=O)ncc6c5)CC4)CC3)cc2)C(C)(C)[C@H]1Oc1ccc(C#N)c(Cl)c1` (some centres unmarked) [Compound 1] gave an AUC(0-inf) of 18900 ng·h/mL, a Cmax of 1260 ng/mL, a half-life of 6.22 h and an F of 68.8%. Further, in series [3], the AUC(0-inf) was determined as 14100 ng·h/mL, the highest concentration (Cmax) is 482 ng/mL, the half-life was 19.9 h and the F came to 44.1%.
